A value given as a limit tells only on which side of the number the result lay.

In the first test the test system is HCT116 cells. Kind of test: In vitro cytotoxicity measured by the cell colony formation assay. The class given is cell-based. As to conditions: HCT116 cells, 72 h incubation with drug, colonies counted after 7 days; ID50 = drug concentration producing 50% inhibition of colony formation; read-out: IN VITRO ID 50 (nm) HCT116. The procedure:
(§1) Four hundred cells (HCT116) were plated in 60 mm Petri dishes containing 2.7 mL of medium (modified McCoy's 5a medium containing 10% fetal bovine serum and 100 units/mL penicillin and 100 µg/mL streptomycin). The cells were incubated in a CO2 incubator at 37° C. for 5 h for attachment to the bottom of Petri dishes. The compounds identified in Example 2 were made up fresh in medium at ten times the final concentration, and then 0.3 mL of this stock solution was added to the 2.7 mL of medium in the dish. The cells were then incubated with drugs for 72 h at 37° C. At the end of incubation the drug-containing media were decanted, the dishes were rinsed with 4 mL of Hank's Balance Salt Solution (HBSS), 5 mL of fresh medium was added, and the dishes were returned to the incubator for colony formation. The cell colonies were counted using a colony counter after incubation for 7 days.
as §1, with “Example 7” for “Example 2”
as §1, with “Example 22” for “Example 2”
as §1, with “Example 27” for “Example 2”
Four hundred cells (HCT116) were plated in 60 mm Petri dishes containing 2.7 mL of medium (modified McCoy's 5a medium containing 10% fetal bovine serum and 100 units/mL penicillin and 100 µg/mL streptomycin). The cells were incubated in a CO2 incubator at 37° C. for 5 h for attachment to the bottom of Petri dishes. […]
For the compound `CCOC(=O)OC1C(=O)C2(C)C(O)CC3OCC3(OC(C)=O)C2C(OC(=O)c2ccccc2)C2(O)CC(OC(=O)C(O)C(NC(=O)OC(C)(C)C)c3cccs3)C(C)=C1C2(C)C` (stereo not shown) [Compound 1755], the IC50 was less than 1 nM. The same measure, in the same setting: the same measure for `CCOC(=O)O[C@H]1C(=O)[C@@]2(C)C([C@H](OC(=O)c3ccccc3)[C@]3(O)C[C@H](OC(=O)[C@H](O)[C@@H](NC(=O)OC(C)(C)C)C(C)C)C(C)=C1C3(C)C)[C@]1(OC(C)=O)CO[C@@H]1C[C@@H]2O` (stereo partly shown) [Compound 1767]: less than 10 nM; for `CCOC(=O)O[C@H]1C(=O)[C@@]2(C)C([C@H](OC(=O)c3ccccc3)[C@]3(O)C[C@H](OC(=O)[C@H](O)[C@@H](NC(=O)OC(C)(C)C)c4ccccc4)C(C)=C1C3(C)C)[C@]1(OC(C)=O)CO[C@@H]1C[C@@H]2O` (stereo partly shown) [Compound 1771]: less than 10 nM. Still for that read-out and setting: the same measure for `CCOC(=O)O[C@H]1C(=O)[C@@]2(C)C([C@H](OC(=O)c3ccccc3)[C@]3(O)C[C@H](OC(=O)[C@H](O)[C@H](C=C(C)C)NC(=O)OC(C)(C)C)C(C)=C1C3(C)C)[C@]1(OC(C)=O)CO[C@@H]1C[C@@H]2O` (stereo partly shown) [Compound 1781]: less than 1 nM; for `CCOC(=O)O[C@H]1C(=O)[C@@]2(C)C([C@H](OC(=O)c3ccccc3)[C@]3(O)C[C@H](OC(=O)[C@H](O)[C@H](C=C(C)C)NC(=O)OC(C)(C)C)C(C)=C1C3(C)C)[C@]1(OC(C)=O)CO[C@@H]1C[C@@H]2O` (stereo partly shown) [Compound 1788]: less than 1 nM; for `CCOC(=O)O[C@H]1C(=O)[C@@]2(C)C([C@H](OC(=O)c3ccccc3)[C@]3(O)C[C@H](OC(=O)[C@H](O)[C@@H](NC(=O)OC(C)(C)C)c4ccccn4)C(C)=C1C3(C)C)[C@]1(OC(C)=O)CO[C@@H]1C[C@@H]2O` (stereo partly shown) [Compound 1799]: less than 1 nM. For the compound `CCOC(=O)O[C@H]1C(=O)[C@@]2(C)C([C@H](OC(=O)c3ccccc3)[C@]3(O)C[C@H](OC(=O)[C@H](O)[C@@H](NC(=O)OC(C)(C)C)c4cccnc4)C(C)=C1C3(C)C)[C@]1(OC(C)=O)CO[C@@H]1C[C@@H]2O` (stereo partly shown) [Compound 1808], the IC50 was less than 10 nM. Take `CCOC(=O)O[C@H]1C(=O)[C@@]2(C)C([C@H](OC(=O)c3ccccc3)[C@]3(O)C[C@H](OC(=O)[C@H](O)[C@@H](NC(=O)OC(C)(C)C)c4ccncc4)C(C)=C1C3(C)C)[C@]1(OC(C)=O)CO[C@@H]1C[C@@H]2O` (stereo partly shown) [Compound 1811]: the IC50 is less than 1 nM.

In the case of `CCOC(=O)O[C@H]1C(=O)[C@@]2(C)C([C@H](OC(=O)c3ccccc3)[C@]3(O)C[C@H](OC(=O)[C@H](O)[C@@H](NC(=O)OC(C)(C)C)c4ccco4)C(C)=C1C3(C)C)[C@]1(OC(C)=O)CO[C@@H]1C[C@@H]2O` (stereo partly shown) [Compound 1822], the IC50 is less than 1 nM. As to `CCOC(=O)O[C@H]1C(=O)[C@@]2(C)C([C@H](OC(=O)c3ccccc3)[C@]3(O)C[C@H](OC(=O)[C@H](O)[C@@H](NC(=O)OC(C)(C)C)c4ccoc4)C(C)=C1C3(C)C)[C@]1(OC(C)=O)CO[C@@H]1C[C@@H]2O` (stereo partly shown) [Compound 1838], the IC50 is less than 1 nM.

For the compound `CCOC(=O)O[C@H]1C(=O)[C@@]2(C)C([C@H](OC(=O)c3ccccc3)[C@]3(O)C[C@H](OC(=O)[C@H](O)[C@@H](NC(=O)OC(C)(C)C)c4ccsc4)C(C)=C1C3(C)C)[C@]1(OC(C)=O)CO[C@@H]1C[C@@H]2O` (stereo partly shown) [Compound 1841], the IC50 was less than 1 nM.

Take `CCOC(=O)O[C@H]1C(=O)[C@@]2(C)C([C@H](OC(=O)c3ccccc3)[C@]3(O)C[C@H](OC(=O)[C@H](O)[C@@H](NC(=O)OC(C)(C)C)C4CCC4)C(C)=C1C3(C)C)[C@]1(OC(C)=O)CO[C@@H]1C[C@@H]2O` (stereo partly shown) [Compound 1855]: the IC50 is less than 10 nM. On the same count and under the same terms, then `CCOC(=O)O[C@H]1C(=O)[C@@]2(C)C([C@H](OC(=O)c3ccccc3)[C@]3(O)C[C@H](OC(=O)[C@H](O)[C@@H](NC(=O)OC(C)(C)C)c4ccc([N+](=O)[O-])cc4)C(C)=C1C3(C)C)[C@]1(OC(C)=O)CO[C@@H]1C[C@@H]2O` (stereo partly shown) [Compound 1866], with less than 1 nM.

The test is the same for the next values; noted with them: HCT116 colony formation; 72 h drug incubation, colonies counted after 7 days; Example 5, C-7 ester/C-10 hydroxy taxanes; read-out: IN VITRO ID 50 (nm) HCT116.
In the case of `CCC(=O)O[C@H]1C[C@H]2OC[C@@]2(OC(C)=O)C2[C@H](OC(=O)c3ccccc3)[C@]3(O)C[C@H](OC(=O)[C@H](O)[C@@H](NC(=O)OC(C)(C)C)c4ccccn4)C(C)=C([C@@H](O)C(=O)[C@@]21C)C3(C)C` (stereo partly shown) [Compound 1364], the IC50 is less than 10 nM. On the same count and under the same terms, the same measure for `CCC(=O)O[C@H]1C[C@H]2OC[C@@]2(OC(C)=O)C2[C@H](OC(=O)c3ccccc3)[C@]3(O)C[C@H](OC(=O)[C@H](O)[C@@H](NC(=O)OC(C)(C)C)c4cccnc4)C(C)=C([C@@H](O)C(=O)[C@@]21C)C3(C)C` (stereo partly shown) [Compound 1372]: 26.1 nM; for `CCC(=O)O[C@H]1C[C@H]2OC[C@@]2(OC(C)=O)C2[C@H](OC(=O)c3ccccc3)[C@]3(O)C[C@H](OC(=O)[C@H](O)[C@@H](NC(=O)OC(C)(C)C)c4ccncc4)C(C)=C([C@@H](O)C(=O)[C@@]21C)C3(C)C` (stereo partly shown) [Compound 1386]: less than 1 nM. On the same count and under the same terms, the same measure for `CCC(=O)OC1CC2OCC2(OC(C)=O)C2C(OC(=O)c3ccccc3)C3(O)CC(OC(=O)C(O)C(NC(=O)OC(C)(C)C)c4ccco4)C(C)=C(C(O)C(=O)C12C)C3(C)C` (stereo not shown) [Compound 1393, 3′-Desphenyl-3′-(2-furyl)-7-propionyl taxotere]: less than 1 nM; for `CCC(=O)O[C@H]1C[C@H]2OC[C@@]2(OC(C)=O)C2[C@H](OC(=O)c3ccccc3)[C@]3(O)C[C@H](OC(=O)[C@H](O)[C@@H](NC(=O)OC(C)(C)C)c4ccoc4)C(C)=C([C@@H](O)C(=O)[C@@]21C)C3(C)C` (stereo partly shown) [Compound 1401]: less than 1 nM; for `CCC(=O)O[C@H]1C[C@H]2OC[C@@]2(OC(C)=O)C2[C@H](OC(=O)c3ccccc3)[C@]3(O)C[C@H](OC(=O)[C@H](O)[C@@H](NC(=O)OC(C)(C)C)c4ccsc4)C(C)=C([C@@H](O)C(=O)[C@@]21C)C3(C)C` (stereo partly shown) [Compound 1424]: less than 1 nM. Still for that read-out and setting: the same measure for `CCC(=O)O[C@H]1C[C@H]2OC[C@@]2(OC(C)=O)C2[C@H](OC(=O)c3ccccc3)[C@]3(O)C[C@H](OC(=O)[C@H](O)[C@@H](NC(=O)OC(C)(C)C)C(C)C)C(C)=C([C@@H](O)C(=O)[C@@]21C)C3(C)C` (stereo partly shown) [Compound 1434]: less than 10 nM.

Turning to `CCC(=O)O[C@H]1C[C@H]2OC[C@@]2(OC(C)=O)C2[C@H](OC(=O)c3ccccc3)[C@]3(O)C[C@H](OC(=O)[C@H](O)[C@@H](NC(=O)OC(C)(C)C)C4CCC4)C(C)=C([C@@H](O)C(=O)[C@@]21C)C3(C)C` (stereo partly shown) [Compound 1447], the IC50 was less than 10 nM.

Regarding `CCC(=O)O[C@H]1C[C@H]2OC[C@@]2(OC(C)=O)C2[C@H](OC(=O)c3ccccc3)[C@]3(O)C[C@H](OC(=O)[C@H](O)[C@@H](NC(=O)OC(C)(C)C)c4ccccc4)C(C)=C([C@@H](O)C(=O)[C@@]21C)C3(C)C` (stereo partly shown) [Compound 1458], the IC50 is less than 10 nM.

The same test, now with this note: HCT116 colony formation; 72 h drug incubation, colonies counted after 7 days; Example 10, C-10 ester/C-7 hydroxy taxanes; read-out: IN VITRO ID 50 (nm) HCT116.
In the case of `CC(=O)OC12COC1CC(O)C1(C)C(=O)C(OC(=O)c3cccs3)C3=C(C)C(OC(=O)C(O)C(C=C(C)C)NC(=O)OC(C)(C)C)CC(O)(C(OC(=O)c4ccccc4)C21)C3(C)C` (stereo not shown) [Compound 1879], the IC50 is less than 10 nM. Take `CC(=O)OC12COC1CC(O)C1(C)C(=O)C(OC(=O)c3cccs3)C3=C(C)C(OC(=O)C(O)C(NC(=O)OC(C)(C)C)c4ccccn4)CC(O)(C(OC(=O)c4ccccc4)C21)C3(C)C` (stereo not shown) [Compound 1883]: the IC50 was less than 10 nM.

As to `CC(=O)OC12COC1CC(O)C1(C)C(=O)C(OC(=O)c3cccs3)C3=C(C)C(OC(=O)C(O)C(NC(=O)OC(C)(C)C)c4ccco4)CC(O)(C(OC(=O)c4ccccc4)C21)C3(C)C` (stereo not shown) [Compound 1892], the IC50 is less than 1 nM.

The values are drawn from patent publication US6638973B2, “Taxane formulations” (FSU Research Foundation, Inc., priority 2000, dated 2003).
